In ChEMBL document CHEMBL1201862, “PubChem BioAssay data set” (2004):
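Assay format: 96-well plates, 48-hour exposure. GI50: concentration for 50% inhibition of growth.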 The source made the active and inactive calls. Cut-off read from the data, not from the text of the source: active = GI50 up to about 1.1 µM and inactive = higher.

What was measured:
Test in all cases: NCI tumour cell line growth inhibition, 48 h
A498 = test system: A498
A549 = test system: A549
CCRF-CEM = test system: CCRF-CEM
HCC 2998 = test system: HCC 2998
HT-29 = test system: HT-29
IGROV-1 = test system: IGROV-1
KM12 = test system: KM12
M14 = test system: M14
Malme-3M = test system: Malme-3M
OVCAR-3 = test system: OVCAR-3
RPMI-8226 = test system: RPMI-8226
SF-295 = test system: SF-295
SF-539 = test system: SF-539
SK-MEL-28 = test system: SK-MEL-28
SK-MEL-2 = test system: SK-MEL-2
SK-MEL-5 = test system: SK-MEL-5
UACC-62 = test system: UACC-62
MCF7 = test system: MCF7

Measured: GI50

Cc1cc(Cl)cc2c1NC(=O)C2(O)C(C)C(=O)c1ccc(Cl)cc1 (stereo not given)
inactive: A498 > 57.7 µM | A549 > 100 µM | CCRF-CEM 30.2 µM | HCC 2998 > 100 µM | HT-29 > 83.2 µM | IGROV-1 > 81.3 µM | KM12 99.1 µM | M14 > 100 µM | Malme-3M > 61.7 µM | OVCAR-3 49.9 µM | RPMI-8226 31.8 µM | SF-295 > 92.5 µM | SF-539 > 62.1 µM | SK-MEL-28 > 62.1 µM | SK-MEL-2 > 100 µM | SK-MEL-5 27.7 µM | UACC-62 20.2 µM

N#CCCc1nc2ccc(Br)cc2c(=O)n1-c1ccc(O)c([N+](=O)[O-])c1
inactive: A498 47.3 µM | A549 55 µM | CCRF-CEM 19.7 µM | HCC 2998 18.6 µM | HT-29 27.7 µM | IGROV-1 20.6 µM | KM12 18.5 µM | M14 21 µM | Malme-3M 17.3 µM | OVCAR-3 18.7 µM | RPMI-8226 17.3 µM | SF-295 20.1 µM | SF-539 18.8 µM | SK-MEL-28 19.3 µM | SK-MEL-2 18.6 µM | SK-MEL-5 18.4 µM | UACC-62 18.9 µM

CC(=O)C(=Cc1cn(C)c(=O)n(C)c1=O)C(C)=O
inactive: A498 101 µM | A549 157 µM | CCRF-CEM 49.4 µM | HCC 2998 122 µM | HT-29 113 µM | IGROV-1 150 µM | KM12 85.1 µM | MCF7 159 µM | Malme-3M 83 µM | OVCAR-3 116 µM | RPMI-8226 89.9 µM | SF-295 107 µM | SF-539 103 µM | SK-MEL-28 100 µM | SK-MEL-2 106 µM | SK-MEL-5 86.9 µM | UACC-62 75.9 µM

O=C(CC(=O)n1nc(-c2ccccc2)c(/N=N/c2ccc(Cl)cc2)c1-c1ccccc1)Nc1ccc(Cl)cc1
inactive: A498 > 100 µM | A549 > 43.9 µM | CCRF-CEM > 43.5 µM | HCC 2998 > 100 µM | HT-29 > 43.3 µM | IGROV-1 > 100 µM | KM12 48.6 µM | M14 > 100 µM | Malme-3M > 100 µM | OVCAR-3 > 100 µM | RPMI-8226 > 46.3 µM | SF-295 > 100 µM | SF-539 > 100 µM | SK-MEL-28 > 100 µM | SK-MEL-2 > 100 µM | SK-MEL-5 > 100 µM | UACC-62 > 100 µM

N#C/N=C(/N)NCO
inactive: A498 > 100 µM | A549 > 57.4 µM | CCRF-CEM > 100 µM | HCC 2998 > 100 µM | HT-29 > 64.1 µM | IGROV-1 > 100 µM | KM12 > 40 µM | M14 > 100 µM | Malme-3M > 100 µM | OVCAR-3 > 100 µM | RPMI-8226 > 48.2 µM | SF-295 > 100 µM | SF-539 > 100 µM | SK-MEL-28 > 100 µM | SK-MEL-2 > 100 µM | SK-MEL-5 > 100 µM | UACC-62 > 100 µM

O=C(N[C@@H](c1ccccc1)[C@@H](O)C(=O)OCc1ccc2c(c1)OCO2)c1ccccc1
inactive: A498 > 100 µM | A549 > 100 µM | CCRF-CEM > 100 µM | HCC 2998 > 100 µM | HT-29 > 100 µM | IGROV-1 > 100 µM | KM12 > 100 µM | MCF7 > 100 µM | Malme-3M > 100 µM | OVCAR-3 > 100 µM | RPMI-8226 > 100 µM | SF-295 > 100 µM | SF-539 > 100 µM | SK-MEL-28 > 100 µM | SK-MEL-2 > 100 µM | SK-MEL-5 > 100 µM | UACC-62 > 80.7 µM

O=C1OC(c2ccccc2)=N/C1=C/c1cccs1
inactive: A549 > 100 µM | CCRF-CEM 23.4 µM | HCC 2998 > 100 µM | HT-29 > 100 µM | IGROV-1 > 100 µM | KM12 56 µM | M14 > 100 µM | MCF7 > 100 µM | OVCAR-3 26.8 µM | RPMI-8226 16.4 µM | SF-295 > 100 µM | SF-539 27.6 µM | SK-MEL-28 > 100 µM | SK-MEL-2 49 µM

CC1C(=O)CC(c2cccs2)N(N=O)C1c1cccs1 (stereo not given)
inactive: A498 13.7 µM | A549 58.3 µM | CCRF-CEM 34 µM | HCC 2998 30.4 µM | HT-29 23.5 µM | IGROV-1 98.6 µM | KM12 54.1 µM | MCF7 19.3 µM | Malme-3M > 82 µM | OVCAR-3 47 µM | RPMI-8226 23.7 µM | SF-295 24.7 µM | SF-539 57.5 µM | SK-MEL-28 53.2 µM | SK-MEL-2 49.9 µM | SK-MEL-5 33.4 µM | UACC-62 59.7 µM

Cc1cccc(C(C)(C)C)c1NC(=O)CCc1nnc(S)[nH]1
inactive: A498 > 100 µM | A549 > 100 µM | CCRF-CEM > 100 µM | HCC 2998 > 100 µM | HT-29 > 100 µM | IGROV-1 > 100 µM | KM12 > 100 µM | M14 > 100 µM | Malme-3M > 100 µM | OVCAR-3 > 100 µM | RPMI-8226 > 100 µM | SF-295 > 100 µM | SF-539 > 100 µM | SK-MEL-28 > 100 µM | SK-MEL-2 > 100 µM | SK-MEL-5 > 100 µM | UACC-62 > 100 µM
